Counter-ions that a name gives are not always drawn.
What was measured:
[1] = off-label, doses 10 times lower than the standard dosage; cited from earlier work
D2 = D2 (Homo sapiens, UniProt P14416); conditions: cited from earlier work
muscarinic receptors = conditions: cited from earlier work
[2] = Initial treatment of patients with atypical HUS (HUSa) with Fenoldopam; assay type: in vivo, human
dopamine receptor D1 = dopamine receptor D1 (Homo sapiens, UniProt P21728); conditions: cited from earlier work
Sequence of dopamine receptor D1 (P21728 whole entry, species assumed): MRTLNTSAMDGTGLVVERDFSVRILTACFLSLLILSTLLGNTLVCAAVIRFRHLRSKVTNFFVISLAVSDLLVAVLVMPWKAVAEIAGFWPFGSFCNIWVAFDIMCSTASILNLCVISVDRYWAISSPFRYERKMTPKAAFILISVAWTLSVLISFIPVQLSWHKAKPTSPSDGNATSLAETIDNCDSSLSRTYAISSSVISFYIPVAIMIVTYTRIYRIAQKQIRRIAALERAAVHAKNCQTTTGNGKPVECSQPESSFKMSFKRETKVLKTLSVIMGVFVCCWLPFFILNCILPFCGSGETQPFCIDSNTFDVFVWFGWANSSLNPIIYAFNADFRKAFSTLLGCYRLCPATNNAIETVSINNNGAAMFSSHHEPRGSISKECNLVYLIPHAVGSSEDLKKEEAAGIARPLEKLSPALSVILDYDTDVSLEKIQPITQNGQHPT

alpha1 = conditions: cited from earlier work
5HT2 = conditions: cited from earlier work
[3] = human, in vivo
α2 adrenergic receptors = conditions: cited from earlier work
5HT1 = conditions: cited from earlier work

Sequence of D2 (P14416 whole entry): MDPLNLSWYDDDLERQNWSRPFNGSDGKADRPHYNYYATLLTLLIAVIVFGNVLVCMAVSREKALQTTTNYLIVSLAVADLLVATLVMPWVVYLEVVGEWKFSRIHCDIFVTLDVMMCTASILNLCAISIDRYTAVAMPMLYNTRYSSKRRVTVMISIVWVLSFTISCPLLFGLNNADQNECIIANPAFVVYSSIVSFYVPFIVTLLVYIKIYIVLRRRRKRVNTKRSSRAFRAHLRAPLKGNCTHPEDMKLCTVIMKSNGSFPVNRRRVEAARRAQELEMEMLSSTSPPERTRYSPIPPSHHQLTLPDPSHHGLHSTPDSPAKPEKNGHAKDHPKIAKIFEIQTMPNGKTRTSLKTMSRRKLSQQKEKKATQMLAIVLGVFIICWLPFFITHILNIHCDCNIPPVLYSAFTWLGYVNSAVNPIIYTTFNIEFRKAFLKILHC

In the case of Oc1ccc(C2CNCCc3c2cc(O)c(O)c3Cl)cc1 (stereo not shown) [Fenoldopam, Fenoldopam mesylate], the “efficacy in acute renal failure” value [1] is listed as “contrasting efficacy results”, the “side effects in acute renal failure use” value [1] is listed as “without the observation of any side effects” and the “affinity for D2 receptors” value (D2) is listed as “does not have any affinity”. For the same compound, the “affinity for muscarinic receptors” value (muscarinic receptors) was “does not have any affinity”, the “natural course of the disease” value ([2]; three cases of HUSa initially treated, before anti-CS antibody) was “less aggressive” and the “overall outcome after subsequent specific treatment” value ([2]; three cases of HUSa, pretreated before anti-CS antibody) was “complete relief without permanent injuries”. For the same compound, the “activity at dopamine receptor D1” value (dopamine receptor D1) was “partial agonist”, the “affinity for alpha1 receptors” value (alpha1) was “does not have any affinity” and the “affinity for 5HT2 receptors” value (5HT2) was “does not have any affinity”. The “levels of creatininemia versus control groups” value [3] was “lower (compared with group 1) or equivalent (with group 2)”, the “mean days in dialysis” value [3] was 0.3 (CI: 0-1.1) days and the “neurological effects during the acute phase” value [3] was “None”. The “permanent kidney or other damage” value [3] was “None”, the “preservation of kidney function (subjects treated)” value [3] was 10 of the 12 and the “reduction of the real resistive index, "on" versus "off" therapy” value [3] was −10.8%. The “side effects attributable to treatment” value [3] was “none”, the “subjects needing dialytic support during the acute phase of the disease” value [3] was 17% and the “affinity to α2 adrenergic receptors” value (α2 adrenergic receptors) was “weak affinity”. For the same compound, the “affinity for 5HT1 receptors” value (5HT1) was “does not have any affinity”.

From patent publication US20200345747A1, “USE OF […] THE TREATMENT OF HEMOLYTIC UREMIC SYNDROME” (priority 2017, published 2020)
